Test results published in ChEMBL document CHEMBL1139902, “Synthesis and SAR of succinamide peptidomimetic inhibitors of cathepsin S” (Bioorg Med Chem Lett, 2007).

How the values were obtained:
[1] = Tmax in Wistar rat at 10 mg/kg. po; type: ADME, organism-based; design: dose 10 mg/kg, route oral; conditions: in vivo
Cathepsin K = biological target: T1, Cathepsin K (Homo sapiens, UniProt P43235); assay: Inhibition of cathepsin K
T1 sequence (P43235 whole entry): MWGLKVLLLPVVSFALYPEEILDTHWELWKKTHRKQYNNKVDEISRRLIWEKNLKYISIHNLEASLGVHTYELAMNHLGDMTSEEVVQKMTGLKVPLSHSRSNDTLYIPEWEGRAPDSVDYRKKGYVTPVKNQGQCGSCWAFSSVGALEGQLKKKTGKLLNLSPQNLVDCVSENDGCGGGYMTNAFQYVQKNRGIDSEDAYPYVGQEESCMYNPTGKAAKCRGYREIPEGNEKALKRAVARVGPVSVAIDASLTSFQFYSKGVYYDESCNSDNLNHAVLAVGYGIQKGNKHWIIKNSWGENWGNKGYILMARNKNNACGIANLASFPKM

[2] = AUC in Wistar rat at 10 mg/kg, po; type: ADME, organism-based; design: dose 10 mg/kg, route oral; conditions: plasma
Procathepsin L = Procathepsin L (Homo sapiens, UniProt P07711); assay: Inhibition of cathepsin L
Chain of Procathepsin L (P07711 whole entry): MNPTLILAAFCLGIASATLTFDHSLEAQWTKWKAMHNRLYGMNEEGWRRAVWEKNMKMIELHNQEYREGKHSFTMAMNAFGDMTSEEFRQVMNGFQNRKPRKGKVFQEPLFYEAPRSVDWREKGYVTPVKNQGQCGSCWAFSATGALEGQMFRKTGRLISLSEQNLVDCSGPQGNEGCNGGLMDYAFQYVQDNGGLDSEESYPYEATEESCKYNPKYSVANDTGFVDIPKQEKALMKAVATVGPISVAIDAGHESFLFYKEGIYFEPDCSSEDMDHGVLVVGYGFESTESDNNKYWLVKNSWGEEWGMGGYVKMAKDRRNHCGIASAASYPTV

[3] = Half life in Wistar rat at 10 mg/kg. po; type: ADME, organism-based; design: dose 10 mg/kg, route oral; conditions: in vivo
[4] = Cmax in Wistar rat at 10 mg/kg. po; type: ADME, organism-based; design: dose 10 mg/kg, route oral; conditions: in vivo
Cathepsin S = Cathepsin S (Homo sapiens, UniProt P25774)
Chain of Cathepsin S (P25774 whole entry): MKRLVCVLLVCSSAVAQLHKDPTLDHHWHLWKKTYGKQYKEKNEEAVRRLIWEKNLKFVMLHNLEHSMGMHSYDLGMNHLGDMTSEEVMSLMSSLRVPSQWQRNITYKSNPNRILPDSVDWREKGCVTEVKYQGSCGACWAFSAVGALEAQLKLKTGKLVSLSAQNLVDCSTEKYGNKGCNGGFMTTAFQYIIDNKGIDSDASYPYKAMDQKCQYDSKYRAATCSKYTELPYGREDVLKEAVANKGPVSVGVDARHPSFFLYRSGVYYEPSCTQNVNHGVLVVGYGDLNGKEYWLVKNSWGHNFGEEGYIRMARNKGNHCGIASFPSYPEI
Description: Inhibition of cathepsin S

SMILES	Tmax [1] [h]	Ki (Cathepsin K) [nM]	AUC [2] [µM·h]	Ki (Procathepsin L) [nM]	half-life [3] [h]	Cmax [4] [nM]	Ki (Cathepsin S) [nM]
COc1ccc([C@H](CC(=O)N2CCOCC2)C(=O)N[C@H](CNc2ccc(OC(F)(F)F)cc2)C(C)C)cc1	1	> 30000	2.04	> 65000	1.06	789	–
CC[C@@H](CNc1ccc(OC(F)(F)F)cc1)NC(=O)[C@H](CCc1ccccc1)CC(=O)N1CCOCC1	–	291	–	588	–	–	60
CCC[C@@H](CNc1ccc(OC(F)(F)F)cc1)NC(=O)[C@@H](CC(=O)N1CCOCC1)CC1CCCCC1	1.83	557	0.752	285	1.23	220	13
CS(=O)(=O)CC[C@@H](CNc1ccc(OC(F)(F)F)cc1)NC(=O)[C@@H](CC(=O)N1CCOCC1)CC1CCCCC1	–	260	–	–	–	–	5
O=C(N[C@H](CNc1ccc(OC(F)(F)F)cc1)c1ccccc1)[C@@H](CC(=O)N1CCOCC1)c1ccccc1	–	10500	–	–	–	–	261
CC(C)[C@@H](CNc1ccc(OC(F)(F)F)cc1)NC(=O)[C@@H](CC(=O)N1CCOCC1)c1ccc(F)cc1	1.67	11500	1.87	11500	0.97	629	24
O=C(NCCNc1ccc(F)cc1)[C@@H](CC(=O)N1CCOCC1)CC1CCCCC1	–	> 30000	–	> 30000	–	–	1370
O=C(NCCNc1ccc(OC(F)(F)F)cc1)[C@@H](CC(=O)N1CCOCC1)c1ccc(C(F)(F)F)cc1	–	> 100000	–	–	–	–	–
C[C@@H](CNc1ccc(OC(F)(F)F)cc1)NC(=O)[C@@H](CC(=O)N1CCOCC1)c1ccc(C(F)(F)F)cc1	–	> 100000	–	> 100000	–	–	–
O=C(N[C@@H](CCc1ccccc1)CNc1ccc(OC(F)(F)F)cc1)[C@@H](CC(=O)N1CCOCC1)c1ccccc1	–	710	–	–	–	–	37
CC(C)[C@@H](CNc1ccc(OC(F)(F)F)cc1)NC(=O)[C@@H](CC(=O)N1CCOCC1)c1ccc(C(F)(F)F)cc1	2	> 100000	4.63	> 100000	2.26	946	43
CC[C@@H](CNc1ccc(OC(F)(F)F)cc1)NC(=O)[C@@H](CC(=O)N1CCOCC1)CC1CCCCC1	–	907	–	267	–	–	–
O=C(NCCNc1ccc(OC(F)(F)F)cc1)[C@@H](CC(=O)N1CCOCC1)CC1CCCCC1	–	> 100000	–	> 30000	–	–	194
CC(C)[C@@H](CNc1ccc(OC(F)(F)F)cc1)NC(=O)[C@@H](CC(=O)N1CCOCC1)c1ccccc1C(F)(F)F	–	> 100000	–	> 100000	–	–	> 100000
CCC[C@@H](CNc1ccc(OC(F)(F)F)cc1)NC(=O)[C@@H](CC(=O)N1CCOCC1)CC1CCCC1	–	217	–	2680	–	–	12
CC(C)[C@@H](CNc1ccc(OC(F)(F)F)cc1)NC(=O)[C@H](CCCc1ccccc1)CC(=O)N1CCOCC1	–	2120	–	–	–	–	14
O=C(N[C@@H](CCc1ccccc1)CNc1ccc(OC(F)(F)F)cc1)[C@@H](CC(=O)N1CCOCC1)CC1CCCCC1	–	1480	–	636	–	–	18
O=C(N[C@H](CNc1ccc(OC(F)(F)F)cc1)c1ccccc1)[C@@H](CC(=O)N1CCOCC1)CC1CCCCC1	2	> 30000	2.77	3520	1.22	815	62
O=C(NCCNc1ccc(F)cc1)[C@H](CC(=O)N1CCOCC1)CC1CCCCC1	–	> 100000	–	> 100000	–	–	> 100000
CC(C)[C@@H](CNc1ccc(OC(F)(F)F)cc1)NC(=O)[C@@H](CC(=O)N1CCOCC1)CC1CCCC1	–	1140	–	–	–	–	38

SMILES	Tmax [1] [h]	Ki (Cathepsin K) [nM]	AUC [2] [µM·h]	Ki (Procathepsin L) [nM]	half-life [3] [h]	Cmax [4] [nM]	Ki (Cathepsin S) [nM]
C[C@@H](CN1CCc2cc(F)ccc21)NC(=O)[C@@H](CC(=O)N1CCOCC1)Cc1ccccc1	–	> 30000	–	8860	–	–	> 24000
CC(C)[C@@H](CNc1ccc(OC(F)(F)F)cc1)NC(=O)[C@@H](CC(=O)N1CCOCC1)CC1CCCCC1	1.7	995	0.831	–	1.06	241	11
C[C@@H](CN1CCc2cc(F)ccc21)NC(=O)[C@@H](CC(=O)N1CCOCC1)CC1CCCCC1	0.42	–	0.048	–	1.12	24	–
O=C(N[C@H](CNc1ccc(OC(F)(F)F)cc1)C1CC1)[C@@H](CC(=O)N1CCOCC1)c1ccc(C(F)(F)F)cc1	–	> 100000	–	> 100000	–	–	616
C[C@@H](CNc1ccc(OC(F)(F)F)cc1)NC(=O)[C@@H](CC(=O)N1CCOCC1)CC(C)(C)C	–	2330	–	> 100000	–	–	–
CC(C)[C@@H](CNc1ccc(OC(F)(F)F)cc1)NC(=O)[C@H](CCc1ccccc1)CC(=O)N1CCOCC1	–	184	–	372	–	–	27
O=C(C[C@@H](CC1CCCCC1)C(=O)N1CCOCC1)NCCNc1ccc(F)cc1	–	> 100000	–	> 100000	–	–	1720
C[C@@H](CNc1ccc(OC(F)(F)F)cc1)NC(=O)[C@H](CCC1CCCCC1)CC(=O)N1CCOCC1	–	3710	–	> 30000	–	–	95
C[C@@H](CNc1ccc(OC(F)(F)F)cc1)NC(=O)[C@@H](CC(=O)N1CCOCC1)CC1CCCCC1	1.5	24300	2.78	18900	0.87	983	28
CC(C)[C@@H](CNc1ccc(OC(F)(F)F)cc1)NC(=O)[C@@H](CC(=O)N1CCOCC1)c1cccc(C(F)(F)F)c1	–	> 100000	–	> 30000	–	–	18500
CC(C)[C@@H](CNc1ccc(OC(F)(F)F)cc1)NC(=O)[C@H](CCC1CCCC1)CC(=O)N1CCOCC1	–	> 26400	–	–	–	–	11
O=C(N[C@@H](CCc1ccccc1)CNc1ccc(OC(F)(F)F)cc1)[C@H](CCC1CCCC1)CC(=O)N1CCOCC1	–	> 30000	–	2310	–	–	200
O=C(NCCN1CCc2cc(F)ccc21)[C@H](CC1CCCCC1)NC(=O)N1CCOCC1	0.33	–	0.312	–	1.12	140	–
CC(C)[C@@H](CNc1ccc(OC(F)(F)F)cc1)NC(=O)[C@@H](CC(=O)N1CCOCC1)c1ccc(Cl)cc1	2	> 100000	2.82	> 100000	1.82	720	–
CC(C)[C@@H](CNc1ccc(OC(F)(F)F)cc1)NC(=O)[C@@H](CC(=O)N1CCOCC1)c1ccccc1	0.7	11500	1.91	11500	0.92	647	25
O=C(C[C@H](CC1CCCCC1)C(=O)N1CCOCC1)NCCNc1ccc(F)cc1	–	> 100000	–	> 100000	–	–	> 100000
Cc1ccc([C@H](CC(=O)N2CCOCC2)C(=O)N[C@H](CNc2ccc(OC(F)(F)F)cc2)C(C)C)cc1	–	> 30000	–	> 100000	–	–	134
C[C@@H](CNc1ccc(OC(F)(F)F)cc1)NC(=O)[C@@H](CC(=O)N1CCOCC1)CC1CCCC1	1	3710	0.806	> 30000	0.68	318	–
C[C@@H](CNc1ccc(OC(F)(F)F)cc1)NC(=O)[C@H](CCC(C)(C)C)CC(=O)N1CCOCC1	–	> 100000	–	> 100000	–	–	–
CS(=O)(=O)CC[C@H](CNc1ccc(OC(F)(F)F)cc1)NC(=O)[C@@H](CC(=O)N1CCOCC1)CC1CCCCC1	–	5410	–	–	–	–	69
